Data published in ChEMBL document CHEMBL1949551, “Design and synthesis of 8-substituted benzamido-phenylxanthine derivatives as MAO-B inhibitors” (Bioorg Med Chem Lett, 2012).

Columns and labels:
[1] = molecular target: T1, Amine oxidase [flavin-containing] B (Mus musculus, UniProt Q8BW75); test: Inhibition of MAO-B in mouse cerebral homogenate using kynuramine as substrate after 30 mins by fluorimetry in the presence of MOA-A inhibitor clorgyline relative to control; details: 0.5 h
T1 sequence (Q8BW75 whole entry): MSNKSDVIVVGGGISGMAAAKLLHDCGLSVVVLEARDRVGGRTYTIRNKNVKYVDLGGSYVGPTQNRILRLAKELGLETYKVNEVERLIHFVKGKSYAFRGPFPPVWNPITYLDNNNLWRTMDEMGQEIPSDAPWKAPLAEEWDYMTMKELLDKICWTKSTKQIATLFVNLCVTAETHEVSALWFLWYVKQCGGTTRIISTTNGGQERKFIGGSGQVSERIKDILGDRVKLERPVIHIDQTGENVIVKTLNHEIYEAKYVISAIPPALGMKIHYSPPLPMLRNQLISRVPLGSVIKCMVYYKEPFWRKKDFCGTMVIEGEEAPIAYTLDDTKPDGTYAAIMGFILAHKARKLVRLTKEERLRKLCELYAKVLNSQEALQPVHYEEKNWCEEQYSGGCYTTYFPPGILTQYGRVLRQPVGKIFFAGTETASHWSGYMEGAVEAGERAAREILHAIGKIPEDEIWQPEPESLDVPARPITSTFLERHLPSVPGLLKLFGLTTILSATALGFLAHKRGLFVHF

[2] = molecular target: T1, Amine oxidase [flavin-containing] B; test: Inhibition of MAO-B in mouse cerebral homogenate using kynuramine as substrate after 30 mins by fluorimetry in the presence of MOA-A inhibitor clorgyline
[3] = molecular target: T1, Amine oxidase [flavin-containing] B; test: Ratio of compound Ki to KW-6002 Ki for MAO-B in mouse cerebral homogenate

SMILES	inhibition (INH) [1] [%]	IC50 [2] [µM]	Ki [2] [µM]	Ratio Ki [3]
COc1ccc(C(=O)Nc2cccc(-c3nc4c([nH]3)c(=O)n(C)c(=O)n4C)c2)cc1	35.1	16	3.49	
Cn1c(=O)c2c(nc(-c3cccc(NC(=O)c4ccccc4)c3)n2C)n(C)c1=O	40.5	14.5	2.95	
Cc1ccc(C(=O)Nc2cccc(-c3nc4c([nH]3)c(=O)n(C)c(=O)n4C)c2)cc1	41.6	14	2.87	
COc1ccc(C(=O)Nc2ccc(-c3nc4c([nH]3)c(=O)n(C)c(=O)n4C)cc2)cc1	32.1	17.2	3.97	
COc1ccc(C(=O)Nc2cccc(-c3nc4c(c(=O)n(C)c(=O)n4C)n3C)c2)cc1	30.8	17.8	3.92	
Cn1c(=O)c2[nH]c(-c3cccc(NC(=O)c4ccccc4)c3)nc2n(C)c1=O	27.9	18.9	4.21	

More lines, now with the values ahead:

inhibition (INH) [1] [%]	IC50 [2] [µM]	Ki [2] [µM]	Ratio Ki [3]	SMILES
53.7	11.3	1.63		Cc1ccc(C(=O)Nc2ccc(-c3nc4c(c(=O)n(C)c(=O)n4C)n3C)cc2)cc1
42.3	13.9	2.77		Cc1ccc(C(=O)Nc2ccc(-c3nc4c([nH]3)c(=O)n(C)c(=O)n4C)cc2)cc1
34.4	16.7	3.56		Cc1ccc(C(=O)Nc2cccc(-c3nc4c(c(=O)n(C)c(=O)n4C)n3C)c2)cc1
58.2	10.7	1.18		COc1ccc(C(=O)Nc2ccc(-c3nc4c(c(=O)n(C)c(=O)n4C)n3C)cc2)cc1
67.4	8.9	0.26	42	Cn1c(=O)c2c(nc(-c3ccc(NC(=O)c4ccccc4)cc3)n2C)n(C)c1=O
